Results taken from ChEMBL document CHEMBL4828780, “Novel Compounds for Preventing SARS-CoV-2 Viral Replication and Treating COVID-19” (ACS Med Chem Lett, 2021).

Assay: Inhibition of SARS-CoV 3C-like protease using Dabcyl-KTSAVLQ-SGFRKME-Edans peptide as substrate incubated for 60 mins by FRET assay

| SMILES | Ki [nM] |
| --- | --- |
| COc1cccc2[nH]c(C(=O)N[C@@H](CC(C)C)C(=O)N[C@@H](C[C@@H]3CCNC3=O)C(=O)COC(=O)c3ccncc3)cc12 | 0.598 |
| COc1cccc2[nH]c(C(=O)N[C@@H](CC(C)C)C(=O)N[C@@H](C[C@@H]3CCNC3=O)C(=O)COC(=O)[C@H]3CCCCN3C)cc12 | 1.42 |
| COc1cccc2[nH]c(C(=O)N[C@@H](CC(C)C)C(=O)N[C@@H](C[C@@H]3CCNC3=O)C(=O)COC(=O)[C@H]3CCCN3C)cc12 | 0.0321 |
| COc1cccc2[nH]c(C(=O)N[C@@H](CC(C)C)C(=O)N[C@@H](C[C@@H]3CCNC3=O)C(=O)COC(=O)c3c(C)ncnc3C)cc12 | 0.928 |
| COc1cccc2[nH]c(C(=O)N[C@@H](CC(C)C)C(=O)N[C@@H](C[C@@H]3CCNC3=O)C(=O)COC(=O)[C@@H]3CCCN3C)cc12 | 2.47 |
| COc1cccc2[nH]c(C(=O)N[C@@H](CC(C)C)C(=O)N[C@@H](C[C@@H]3CCNC3=O)C(=O)COC(=O)CN(C)C)cc12 | 2.98 |
